How the values were obtained:
[1] = molecular target: diheteromeric rat GluN1/GluN2Bc1/GluN2Bc2 (r2Bc1/r2Bc2) (Rattus norvegicus, UniProt P35439+Q00959+Q00960, A876H/F846L/G856D/H848F/K857R/M851T/M860L/Q845K/V861L); assay: Concentration-inhibition curves, oocytes, C1/C2-tagged NMDARs; format: cell-based
[2] = system: hP2x; assay: Off-target ligand-gated ion channels in Xenopus oocytes; format: cell-based, human; settings: agonist 9 µM ATP; mean ± SEM
Method: EU93-108 was further examined for its behavior against common off-target receptors. First, selectivity for GluN2B over other ion channels in the brain was examined via two-electrode voltage clamp recordings of Xenopus oocytes expressing AMPA, kainate, nicotinic acetylcholine, serotonin, GABA, glycine, and ATP receptors. Current responses were tested with saturating concentrations of agonist in both the absence and presence of 10 μM EU93-108, and confirmed selectivity for GluN2B-containing NMDA receptors over AMPA, kainate, GABA, glycine, ATP, and 5-HT3A receptors (Supporting Table S3).
Receptor Agonist % Control
Supplemental Table S3. Off-target actions of EU93-108 at ligand-gated ion channels expressed in Xenopus oocytes. The mean ± standard error of the mean for agonist plus 10 μM EU93-108 as a percentage of agonist in vehicle are given for each compound and receptor tested. Number of oocytes tested is given in parentheses.

[3] = molecular target: 5-HT2A (Homo sapiens, UniProt P28223); assay: Radioligand binding assay (NIMH PDSP)
Method: (§1) Compound EU93-108 was also tested for inhibition of binding of probes to a range of GPCRs and other targets (Table 4 and Supporting Table S4). […] EU93-108 produced significant displacement of binding probes for the 5-HT2 receptors and α-1-adrenergic receptors, as well as D3, H1, and σ1 receptors. Concentration–response binding competition curves for these targets were used to determine Ki values (Table 4). Given that the brain concentration of EU93-108 achieved 30 min post i.p. injection is 18 μM (Figure 6), the doses that yield our desired antinociceptive effects may engage some of the receptors listed in Table 4.
(§2) Conventional competition and saturation radioligand binding assays were used to determine the affinities of reference standards and EU93-108. Experiments were carried out by the NIMH Psychoactive Drug Screening Program (PDSP) and were performed as previously described.[123]
(§3) The detailed experimental protocols for the radioligand assays are available on the NIMH PDSP website at https://pdsp.unc.edu/pdspweb/content/UNC-CH%20Protocol%20Book.pdf.
(§4) Receptor Mean % Receptor Mean % Receptor Mean %
(§5) Inhibition Inhibition Inhibition
(§6) Supplemental Table S4. Off-Target Actions of EU93-108: Primary GPCR Screen. Cloned human molecular targets were individually expressed and submitted to molecular target-based screening with initial screens performed at a final concentration of 10 µM in quadruplicate. Complete protocols for the assays have been previously published (Besnard J et al. 2012). Where inhibition greater than 50% was measured, secondary screens were performed wherein Ki values were calculated (see Table 4).

[4] = molecular target: 5-HT2B (Homo sapiens, UniProt P41595); assay: Radioligand binding assay (NIMH PDSP)
Method: as §1, §2, §3, §4, §5, §6

[5] = molecular target: T1, 5-HT2C (Homo sapiens, UniProt P28335); assay: Radioligand binding assay (NIMH PDSP)
T1 sequence (P28335 33-458): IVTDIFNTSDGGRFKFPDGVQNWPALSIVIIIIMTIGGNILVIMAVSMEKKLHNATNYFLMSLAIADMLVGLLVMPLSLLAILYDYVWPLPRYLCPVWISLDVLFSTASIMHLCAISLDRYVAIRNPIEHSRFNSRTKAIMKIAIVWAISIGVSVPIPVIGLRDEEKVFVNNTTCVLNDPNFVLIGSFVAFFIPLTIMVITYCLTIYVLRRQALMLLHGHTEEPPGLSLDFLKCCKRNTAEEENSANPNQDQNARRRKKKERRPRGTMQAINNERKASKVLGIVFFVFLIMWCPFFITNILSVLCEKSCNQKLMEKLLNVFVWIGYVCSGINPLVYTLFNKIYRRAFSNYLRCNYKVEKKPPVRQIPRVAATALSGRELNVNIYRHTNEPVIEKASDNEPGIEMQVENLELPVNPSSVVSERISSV
Method: as §1, §2, §3, §4, §5, §6

[6] = system: C57BL/6J mice; assay: Hot water tail immersion test, acute co-administration with 5 mg/kg morphine; format: in vivo; settings: for lowest dose that significantly increased latency: plus 5 mg/kg morphine s.c.
Method: We were next interested in evaluating the effects of EU93-108 when given acutely in combination with morphine. 5 mg/kg morphine was chosen because this dose elicited an approximately half-maximal response in our initial morphine dose–response curve (Supporting Figure S3). This half-maximal response would allow us to see any changes in tail flick latency that EU93-108 might elicit.
Four treatment groups and one control group were used (n = 8 per group). The control group received vehicle (10% DMSO, 20% PEG, 2% DMA in water) i.p. plus 5 mg/kg morphine s.c. formulated in normal saline, and groups 1–4 were randomly assigned one dose of EU93-108 i.p. plus 5 mg/kg morphine s.c. The doses used were the same as in the intrinsic analgesia experiments.
All animal studies performed at Emory have been approved by the Institutional Animal Care and Use Committee at Emory University. Male and female C57BL/6J mice weighing between 20 and 30 g were housed five per cage and given ad libitum access to food and water. The mice were 8–10 weeks of age at the time of experimentation. Animal holding rooms operated on a 12 h dark/light cycle with the dark cycle from 7:00 pm to 7:00 am. Mice were allowed to acclimate in cages for one week after arrival. […]
Mouse weights were recorded on the day of each experiment. […] Three recordings were taken for each mouse, and each data point is expressed as the mean of the three recordings. […] The identities were not decoded until the data were analyzed.
Prism 9.3.1 software (GraphPad, San Diego, CA) was used for all data analysis and visualization. Data for intrinsic antinociception was analyzed using one-way ANOVA and Dunnett’s post hoc test for multiple comparisons where each group was compared to vehicle. Data for acute morphine potentiation experiments were analyzed using one-way ANOVA and Tukey’s post hoc test for multiple comparisons was also used, where each group mean was compared to the mean of every other group. Data for tolerance experiments were analyzed using repeated measures two-way ANOVA and Bonferroni post hoc analysis. […]

[7] = primary screen, 10 µM, quadruplicate
[8] = ratio of Ki to the IC50 for EU93-108 (555 nM) at GluN2B
[9] = secondary screen, binding competition curve

diheteromeric rat GluN1/GluN2Bc1/GluN2Bc2 (r2Bc1/r2Bc2), sequence (Q00960+Q00959 fused with the stated changes, other chains not shown): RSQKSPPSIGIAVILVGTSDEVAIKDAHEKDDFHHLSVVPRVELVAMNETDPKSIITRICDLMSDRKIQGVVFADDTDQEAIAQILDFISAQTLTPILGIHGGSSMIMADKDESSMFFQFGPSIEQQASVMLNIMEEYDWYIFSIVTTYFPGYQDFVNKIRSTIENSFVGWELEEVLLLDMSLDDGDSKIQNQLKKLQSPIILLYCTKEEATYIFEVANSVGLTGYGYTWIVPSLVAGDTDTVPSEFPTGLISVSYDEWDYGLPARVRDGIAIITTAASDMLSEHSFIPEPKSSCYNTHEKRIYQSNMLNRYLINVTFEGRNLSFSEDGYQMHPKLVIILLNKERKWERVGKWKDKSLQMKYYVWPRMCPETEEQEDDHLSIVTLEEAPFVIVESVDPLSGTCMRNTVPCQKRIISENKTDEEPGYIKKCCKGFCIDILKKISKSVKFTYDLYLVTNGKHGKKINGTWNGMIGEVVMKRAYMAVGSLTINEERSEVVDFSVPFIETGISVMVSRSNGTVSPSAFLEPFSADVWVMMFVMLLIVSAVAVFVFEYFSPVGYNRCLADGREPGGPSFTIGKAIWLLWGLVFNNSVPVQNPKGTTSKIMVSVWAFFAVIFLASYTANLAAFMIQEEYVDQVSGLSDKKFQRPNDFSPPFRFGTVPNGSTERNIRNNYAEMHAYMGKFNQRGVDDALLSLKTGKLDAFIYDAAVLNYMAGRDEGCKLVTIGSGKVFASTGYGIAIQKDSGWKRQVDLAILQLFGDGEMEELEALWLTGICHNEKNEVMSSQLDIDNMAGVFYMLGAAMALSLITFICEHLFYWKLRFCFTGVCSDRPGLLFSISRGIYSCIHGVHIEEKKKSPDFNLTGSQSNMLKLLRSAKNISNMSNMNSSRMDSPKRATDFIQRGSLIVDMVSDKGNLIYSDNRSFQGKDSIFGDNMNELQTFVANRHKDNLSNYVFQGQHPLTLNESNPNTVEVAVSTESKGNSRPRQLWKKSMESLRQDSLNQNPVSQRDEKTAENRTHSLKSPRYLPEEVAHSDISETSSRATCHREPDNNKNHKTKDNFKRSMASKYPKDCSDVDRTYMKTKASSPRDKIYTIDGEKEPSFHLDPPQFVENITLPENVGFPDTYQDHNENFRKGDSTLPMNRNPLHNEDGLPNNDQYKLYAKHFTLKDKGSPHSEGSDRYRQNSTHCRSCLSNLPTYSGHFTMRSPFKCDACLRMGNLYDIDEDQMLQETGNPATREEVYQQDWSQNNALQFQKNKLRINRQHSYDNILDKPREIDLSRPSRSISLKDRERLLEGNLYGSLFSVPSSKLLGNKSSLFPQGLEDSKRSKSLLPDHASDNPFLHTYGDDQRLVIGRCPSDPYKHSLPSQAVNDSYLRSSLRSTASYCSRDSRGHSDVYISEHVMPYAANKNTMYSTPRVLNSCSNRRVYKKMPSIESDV
diheteromeric rat GluN1/GluN2Bc1/GluN2Bc2 (r2Bc1/r2Bc2), sequence (Q00960+Q00959 fused with the stated changes, other chains not shown): as above
5-HT2B, sequence (P41595 whole entry): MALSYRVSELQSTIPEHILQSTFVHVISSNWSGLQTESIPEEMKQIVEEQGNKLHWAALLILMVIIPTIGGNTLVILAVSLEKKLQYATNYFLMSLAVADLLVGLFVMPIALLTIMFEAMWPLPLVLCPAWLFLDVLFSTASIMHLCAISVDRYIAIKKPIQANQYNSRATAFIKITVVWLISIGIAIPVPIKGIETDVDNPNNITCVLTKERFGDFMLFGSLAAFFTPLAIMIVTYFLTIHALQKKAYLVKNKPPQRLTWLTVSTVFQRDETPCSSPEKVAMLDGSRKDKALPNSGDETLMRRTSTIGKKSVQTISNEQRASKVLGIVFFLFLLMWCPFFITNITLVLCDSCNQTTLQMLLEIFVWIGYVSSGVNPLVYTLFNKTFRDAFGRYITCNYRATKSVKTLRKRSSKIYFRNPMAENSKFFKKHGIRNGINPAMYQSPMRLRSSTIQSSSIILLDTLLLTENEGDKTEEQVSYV
5-HT2A, sequence (P28223 whole entry): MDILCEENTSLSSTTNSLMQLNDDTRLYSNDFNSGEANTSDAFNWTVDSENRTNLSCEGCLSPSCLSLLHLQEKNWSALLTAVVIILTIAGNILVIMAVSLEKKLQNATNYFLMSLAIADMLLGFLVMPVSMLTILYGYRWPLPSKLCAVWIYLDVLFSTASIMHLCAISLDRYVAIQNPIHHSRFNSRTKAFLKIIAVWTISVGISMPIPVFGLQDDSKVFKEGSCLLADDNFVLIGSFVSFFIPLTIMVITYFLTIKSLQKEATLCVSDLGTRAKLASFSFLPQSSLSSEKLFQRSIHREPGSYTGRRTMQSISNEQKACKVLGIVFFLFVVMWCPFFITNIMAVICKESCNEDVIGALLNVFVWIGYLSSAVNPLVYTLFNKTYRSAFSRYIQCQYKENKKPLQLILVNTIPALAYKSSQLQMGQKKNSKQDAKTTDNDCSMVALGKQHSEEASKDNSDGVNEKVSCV

CS(=O)(=O)Nc1ccc(OC[C@@H](O)CN2CCN(c3ccc(F)c(F)c3)CC2)cc1 [EU93-108, (S)-N-(4-(3-(4-(3,4-Difluorophenyl)piperazin-1-yl)-2-hydroxypropoxy)phenyl)methanesulfonamide]
residual current remaining at 10 μM EU93-108 ([1]; 10 μM, % of maximal response, n = 8): 10.6%
IC50 ([1]; 100 μM glutamate and 100 μM glycine, −40 mV, pH 7.4, n = 8): 233 nM
nH ([1]; Hill slope factor of the inhibition curve, Table S1): -1.06
Ymin ([1]; residual response, Table S1, N = 8): 10.6
% Control 10 µM EU93-108 [2]: 96.6 ± 4.3%
inhibition at 10 µM [3, 7]: 83.8%
Ki/IC50 of EU93-108 [3, 8]: 0.88
Ki [3, 9]: 490 nM
inhibition at 10 µM [4, 7]: 67.4%
Ki/IC50 of EU93-108 [4, 8]: 1.75
Ki [4, 9]: 976 nM
inhibition at 10 µM [5, 7]: 71.3%
Ki/IC50 of EU93-108 [5, 8]: 3.28
Ki [5, 9]: 1820 nM
lowest dose that significantly increased latency ([6]; female mice): 20 mg/kg
potency when combined with morphine versus EU93-108 alone ([6]; male mice): approximately 3 fold
lowest dose that significantly increased latency ([6]; male mice): 10 mg/kg
